Experimental data: ChEMBL document CHEMBL3885881, “DrugMatrix”

Species on record: Rattus norvegicus
Experiment: DrugMatrix - Regimen: Daily Repeat
Assay type: toxicity, organism-based, Sprague-Dawley
Parameters: regimen Daily Repeat, gender Male, age 6-8 weeks
Conditions: in vivo, po, route oral GAVAGE, vehicle 100 % WATER; for ABSOLUTE BASOPHIL / ABSOLUTE EOSINOPHIL / ABSOLUTE LYMPHOCYTE / ABSOLUTE MONOCYTE / ABSOLUTE SEGMENTED NEUTROPHIL / BASOPHIL / EOSINOPHIL / ERYTHROCYTE COUNT / HEMATOCRIT / HEMOGLOBIN / LEUKOCYTE COUNT / LYMPHOCYTE / MEAN CORPUSCULAR HEMOGLOBIN / MEAN CORPUSCULAR HEMOGLOBIN CONCENTRATION / MEAN CORPUSCULAR VOLUME / MONOCYTE / NEUTROPHIL / NUCLEATED RED BLOOD CELLS / PLATELET COUNT: tissue Blood; for ALANINE AMINOTRANSFERASE / ALBUMIN / ALKALINE PHOSPHATASE / ASPARTATE AMINOTRANSFERASE / BLOOD UREA NITROGEN / CARBON DIOXIDE / CHLORIDE / CHOLESTEROL / CREATINE PHOSPHOKINASE / CREATININE / GLUCOSE / LACTATE DEHYDROGENASE / LIPASE / PHOSPHORUS / POTASSIUM / SODIUM / TOTAL BILIRUBIN / TOTAL PROTEIN / URIC ACID: tissue Plasma
[1] = 6 mg/kg, 120 h, dose level Low, time 5 day
[2] = 414 mg/kg, 72 h, dose level High, time 3 day
[3] = 414 mg/kg, 120 h, dose level High, time 5 day

CN1CCN(C(=O)OC2c3nccnc3C(=O)N2c2ccc(Cl)cn2)CC1 (centres undefined) [ZOPICLONE]
ABSOLUTE BASOPHIL [1]: 0 CELLS/uL | ABSOLUTE EOSINOPHIL [1]: 89.67 CELLS/uL | ABSOLUTE LYMPHOCYTE [1]: 11847.67 CELLS/uL | ABSOLUTE MONOCYTE [1]: 80.67 CELLS/uL | ABSOLUTE SEGMENTED NEUTROPHIL [1]: 982 CELLS/uL | BASOPHIL [1]: 0% | EOSINOPHIL [1]: 0.67% | ERYTHROCYTE COUNT [1]: 6 x10E6/uL | HEMATOCRIT [1]: 36.37% | HEMOGLOBIN [1]: 14 G/DL | LEUKOCYTE COUNT [1]: 13 x10E3/uL | LYMPHOCYTE [1]: 91% | MEAN CORPUSCULAR HEMOGLOBIN [1]: 23.3 pg | MEAN CORPUSCULAR HEMOGLOBIN CONCENTRATION [1]: 38.5 G/DL | MEAN CORPUSCULAR VOLUME [1]: 60.6 fL | MONOCYTE [1]: 0.67% | NEUTROPHIL [1]: 7.67% | NUCLEATED RED BLOOD CELLS [1]: 0 /100WBC | PLATELET COUNT [1]: 827.33 x10E3/uL | ALANINE AMINOTRANSFERASE [1]: 51.67 u/L | ALBUMIN [1]: 4.07 G/DL | ALKALINE PHOSPHATASE [1]: 386.67 u/L | ASPARTATE AMINOTRANSFERASE [1]: 91.33 u/L | BLOOD UREA NITROGEN [1]: 15 mg/dL | CARBON DIOXIDE [1]: 32 mmol/L | CHLORIDE [1]: 101.67 MEQ/L | CHOLESTEROL [1]: 61.33 mg/dL | CREATINE PHOSPHOKINASE [1]: 428.33 u/L | CREATININE [1]: 0.13 mg/dL | GLUCOSE [1]: 151.33 mg/dL | LACTATE DEHYDROGENASE [1]: 157.67 u/L | LIPASE [1]: 10 u/L | PHOSPHORUS [1]: 12.2 mg/dL | POTASSIUM [1]: 6.32 MEQ/L | SODIUM [1]: 146.2 MEQ/L | TOTAL BILIRUBIN [1]: 0.17 mg/dL | TOTAL PROTEIN [1]: 6.03 G/DL | URIC ACID [1]: 1.17 mg/dL | ABSOLUTE BASOPHIL [2]: 0 CELLS/uL | ABSOLUTE EOSINOPHIL [2]: 54 CELLS/uL | ABSOLUTE LYMPHOCYTE [2]: 11865 CELLS/uL | ABSOLUTE MONOCYTE [2]: 279 CELLS/uL | ABSOLUTE SEGMENTED NEUTROPHIL [2]: 4168.67 CELLS/uL | BASOPHIL [2]: 0% | EOSINOPHIL [2]: 0.33% | ERYTHROCYTE COUNT [2]: 5.87 x10E6/uL | HEMATOCRIT [2]: 36.97% | HEMOGLOBIN [2]: 14.13 G/DL | LEUKOCYTE COUNT [2]: 16.37 x10E3/uL | LYMPHOCYTE [2]: 72.33% | MEAN CORPUSCULAR HEMOGLOBIN [2]: 24.1 pg | MEAN CORPUSCULAR HEMOGLOBIN CONCENTRATION [2]: 38.23 G/DL | MEAN CORPUSCULAR VOLUME [2]: 63.03 fL | MONOCYTE [2]: 1.67% | NEUTROPHIL [2]: 25.67% | NUCLEATED RED BLOOD CELLS [2]: 0 /100WBC | PLATELET COUNT [2]: 1420.33 x10E3/uL | ALANINE AMINOTRANSFERASE [2]: 76 u/L | ALBUMIN [2]: 3.9 G/DL | ALKALINE PHOSPHATASE [2]: 416.33 u/L | ASPARTATE AMINOTRANSFERASE [2]: 81 u/L | BLOOD UREA NITROGEN [2]: 15.67 mg/dL | CARBON DIOXIDE [2]: 31.67 mmol/L | CHLORIDE [2]: 101.33 MEQ/L | CHOLESTEROL [2]: 79 mg/dL | CREATINE PHOSPHOKINASE [2]: 490.67 u/L | CREATININE [2]: 0.17 mg/dL | GLUCOSE [2]: 142.33 mg/dL | LACTATE DEHYDROGENASE [2]: 208 u/L | LIPASE [2]: 10.67 u/L | PHOSPHORUS [2]: 9.37 mg/dL | POTASSIUM [2]: 5.75 MEQ/L | SODIUM [2]: 145.07 MEQ/L | TOTAL BILIRUBIN [2]: 0.13 mg/dL | TOTAL PROTEIN [2]: 5.97 G/DL | URIC ACID [2]: 0.43 mg/dL | ABSOLUTE BASOPHIL [3]: 0 CELLS/uL | ABSOLUTE EOSINOPHIL [3]: 34 CELLS/uL | ABSOLUTE LYMPHOCYTE [3]: 13648.67 CELLS/uL | ABSOLUTE MONOCYTE [3]: 500 CELLS/uL | ABSOLUTE SEGMENTED NEUTROPHIL [3]: 2484 CELLS/uL | BASOPHIL [3]: 0% | EOSINOPHIL [3]: 0.33% | ERYTHROCYTE COUNT [3]: 6.38 x10E6/uL | HEMATOCRIT [3]: 38.3% | HEMOGLOBIN [3]: 14.7 G/DL | LEUKOCYTE COUNT [3]: 16.67 x10E3/uL | LYMPHOCYTE [3]: 81% | MEAN CORPUSCULAR HEMOGLOBIN [3]: 23.07 pg | MEAN CORPUSCULAR HEMOGLOBIN CONCENTRATION [3]: 38.37 G/DL | MEAN CORPUSCULAR VOLUME [3]: 60.13 fL | MONOCYTE [3]: 3% | NEUTROPHIL [3]: 15.67% | NUCLEATED RED BLOOD CELLS [3]: 0 /100WBC | PLATELET COUNT [3]: 1154.67 x10E3/uL | ALANINE AMINOTRANSFERASE [3]: 76.67 u/L | ALBUMIN [3]: 3.57 G/DL | ALKALINE PHOSPHATASE [3]: 365 u/L | ASPARTATE AMINOTRANSFERASE [3]: 80.33 u/L | BLOOD UREA NITROGEN [3]: 15.33 mg/dL | CARBON DIOXIDE [3]: 30.33 mmol/L | CHLORIDE [3]: 102 MEQ/L | CHOLESTEROL [3]: 68 mg/dL | CREATINE PHOSPHOKINASE [3]: 261.33 u/L | CREATININE [3]: 0.22 mg/dL | GLUCOSE [3]: 118.67 mg/dL | LACTATE DEHYDROGENASE [3]: 110.33 u/L | LIPASE [3]: 11 u/L | PHOSPHORUS [3]: 11.23 mg/dL | POTASSIUM [3]: 6.36 MEQ/L | SODIUM [3]: 146.63 MEQ/L | TOTAL BILIRUBIN [3]: 0.1 mg/dL | TOTAL PROTEIN [3]: 5.73 G/DL | URIC ACID [3]: 1.53 mg/dL
